Tests used:
Assay type in all cases: in vivo
[1] = system: morningglory (Ipomoea spp.); assay: Test A pre-/postemergence greenhouse herbicide test, visual injury rating 0-100
Summary of the method: (§1)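 Seeds planted in loam-sand blend; preemergence directed soil spray and postemergence spray at 2–10 cm, one- to two-leaf stage, compounds formulated in non-phytotoxic solvent with surfactant. After about 10 days in greenhouse, injury rated visually against untreated controls, 0 (no effect) to 100 (complete control).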

[2] = system: barnyardgrass (Echinochloa crus-galli); assay: as above
Summary of the method: as §1

[3] = system: velvetleaf (Abutilon theophrasti); assay: as above
Summary of the method: as §1

[4] = system: large (Lg) crabgrass (Digitaria sanguinalis); assay: as above
Summary of the method: as §1

corn (Zea mays) = assay: as above
Summary of the method: as §1

[5] = system: wheat (Triticum aestivum); assay: as above
Summary of the method: as §1

[6] = system: giant foxtail (Setaria faberii); assay: as above
Summary of the method: as §1

[7] = system: pigweed (Amaranthus retroflexus); assay: as above
Summary of the method: as §1

[8] = system: ragweed (common ragweed, Ambrosia elatior); assay: Test C pre-/postemergence greenhouse test, plant response rating 0-100; details: Postemergence; for Plant response rating, Ragweed: scale 0 to 100
Summary of the method: (§2)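 Greenhouse test. Preemergence: seed in loam:sand, sprayed with formulated chemical (solvent + surfactant). Postemergence: 1–4 leaf plants, 2–18 cm, peat-based potting medium. Hold 13–15 d; score visually, 0 (none) to 100 (complete control); dash = not tested.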

[9] = system: morningglory (Ipomoea coccinea); assay: as above; details: Postemergence; for Plant response rating, Morningglory: scale 0 to 100
Summary of the method: as §2

[10] = system: velvetleaf (Abutilon theophrasti); assay: as above; details: Postemergence; for Plant response rating, Velvetleaf: scale 0 to 100
Summary of the method: as §2

[11] = system: large (Lg) crabgrass (Digitaria sanguinalis); assay: as above; details: Postemergence; for Plant response rating, Crabgrass, Large: scale 0 to 100
Summary of the method: as §2

[12] = system: blackgrass (Alopecurus myosuroides); assay: as above; details: Postemergence; for Plant response rating, Blackgrass: scale 0 to 100
Summary of the method: as §2

Fc1cccc(NN=C(c2ccccc2)c2c[nH]nc2-c2cc(Cl)cc(Cl)c2)c1 [Compound 58]
90: Plant response rating (0 to 100 scale), Velvetleaf ([3]; Postemergence, 1000 g ai/ha) | Plant response rating (0 to 100 scale), Velvetleaf ([3]; Preemergence, 1000 g ai/ha) | Plant response rating (0 to 100 scale), Pigweed ([7]; Postemergence, 1000 g ai/ha)
75: Plant response rating, Velvetleaf ([10]; 500 g ai/ha)
5: Plant response rating (0 to 100), Crabgrass, Large ([11]; 62 g ai/ha) | Plant response rating (0 to 100), Crabgrass, Large ([11]; 125 g ai/ha) | Plant response rating, Crabgrass, Large ([11]; 250 g ai/ha) | Plant response rating, Crabgrass, Large ([11]; 500 g ai/ha)
10: Plant response rating (0 to 100), Ragweed ([8]; 62 g ai/ha)
70: Plant response rating, Velvetleaf ([10]; 250 g ai/ha)
60: Plant response rating (0 to 100), Velvetleaf ([10]; 62 g ai/ha)
40: Plant response rating (0 to 100), Ragweed ([8]; 125 g ai/ha)
65: Plant response rating, Ragweed ([8]; 500 g ai/ha) | Plant response rating (0 to 100), Velvetleaf ([10]; 125 g ai/ha)
50: Plant response rating, Ragweed ([8]; 250 g ai/ha)
0: Plant response rating (0 to 100 scale), Morningglory ([1]; Postemergence, 1000 g ai/ha) | Plant response rating (0 to 100 scale), Morningglory ([1]; Preemergence, 1000 g ai/ha) | Plant response rating (0 to 100 scale), Barnyardgrass ([2]; Postemergence, 1000 g ai/ha) | Plant response rating (0 to 100 scale), Barnyardgrass ([2]; Preemergence, 1000 g ai/ha) | Plant response rating (0 to 100 scale), Crabgrass, Large ([4]; Postemergence, 1000 g ai/ha) | Plant response rating (0 to 100 scale), Crabgrass, Large ([4]; Preemergence, 1000 g ai/ha) | Plant response rating (0 to 100 scale), Corn (corn (Zea mays); Postemergence, 1000 g ai/ha) | Plant response rating (0 to 100 scale), Corn (corn (Zea mays); Preemergence, 1000 g ai/ha) | Plant response rating (0 to 100 scale), Wheat ([5]; Postemergence, 1000 g ai/ha) | Plant response rating (0 to 100 scale), Wheat ([5]; Preemergence, 1000 g ai/ha) | Plant response rating (0 to 100 scale), Foxtail, Giant ([6]; Postemergence, 1000 g ai/ha) | Plant response rating (0 to 100 scale), Foxtail, Giant ([6]; Preemergence, 1000 g ai/ha) | Plant response rating (0 to 100), Morningglory ([9]; 62 g ai/ha) | Plant response rating (0 to 100), Morningglory ([9]; 125 g ai/ha) | Plant response rating, Morningglory ([9]; 250 g ai/ha) | Plant response rating, Morningglory ([9]; 500 g ai/ha) | Plant response rating (0 to 100), Blackgrass ([12]; 62 g ai/ha) | Plant response rating (0 to 100), Blackgrass ([12]; 125 g ai/ha) | Plant response rating, Blackgrass ([12]; 250 g ai/ha) | Plant response rating, Blackgrass ([12]; 500 g ai/ha)
100: Plant response rating (0 to 100 scale), Pigweed ([7]; Preemergence, 1000 g ai/ha)

C=CCn1cc(C(=O)c2ccccc2)c(-c2cc(Cl)cc(Cl)c2)n1 [Compound 60]
70: Plant response rating (0 to 100), Velvetleaf ([10]; 62 g ai/ha) | Plant response rating (0 to 100), Velvetleaf ([10]; 125 g ai/ha)
0: Plant response rating (0 to 100 scale), Morningglory ([1]; Postemergence, 125 g ai/ha) | Plant response rating (0 to 100 scale), Morningglory ([1]; Postemergence, 500 g ai/ha) | Morningglory plant response rating (0 = no effect, 100 = complete control) ([1]; Preemergence, 125 g ai/ha) | Plant response rating (0 to 100 scale), Morningglory ([1]; Preemergence, 500 g ai/ha) | Plant response rating (0 to 100 scale), Barnyardgrass ([2]; Postemergence, 125 g ai/ha) | Plant response rating (0 to 100 scale), Barnyardgrass ([2]; Postemergence, 500 g ai/ha) | Barnyardgrass plant response rating (0 = no effect, 100 = complete control) ([2]; Preemergence, 125 g ai/ha) | Plant response rating (0 to 100 scale), Barnyardgrass ([2]; Preemergence, 500 g ai/ha) | Plant response rating (0 to 100 scale), Crabgrass, Large ([4]; Postemergence, 125 g ai/ha) | Plant response rating (0 to 100 scale), Crabgrass, Large ([4]; Postemergence, 500 g ai/ha) | Crabgrass, Large plant response rating (0 = no effect, 100 = complete control) ([4]; Preemergence, 125 g ai/ha) | Plant response rating (0 to 100 scale), Crabgrass, Large ([4]; Preemergence, 500 g ai/ha) | Plant response rating (0 to 100 scale), Corn (corn (Zea mays); Postemergence, 125 g ai/ha) | Plant response rating (0 to 100 scale), Corn (corn (Zea mays); Postemergence, 500 g ai/ha) | Corn plant response rating (0 = no effect, 100 = complete control) (corn (Zea mays); Preemergence, 125 g ai/ha) | Plant response rating (0 to 100 scale), Corn (corn (Zea mays); Preemergence, 500 g ai/ha) | Plant response rating (0 to 100 scale), Wheat ([5]; Postemergence, 125 g ai/ha) | Plant response rating (0 to 100 scale), Wheat ([5]; Postemergence, 500 g ai/ha) | Wheat plant response rating (0 = no effect, 100 = complete control) ([5]; Preemergence, 125 g ai/ha) | Plant response rating (0 to 100 scale), Foxtail, Giant ([6]; Postemergence, 125 g ai/ha) | Plant response rating (0 to 100 scale), Foxtail, Giant ([6]; Postemergence, 500 g ai/ha) | Foxtail, Giant plant response rating (0 = no effect, 100 = complete control) ([6]; Preemergence, 125 g ai/ha) | Plant response rating (0 to 100 scale), Foxtail, Giant ([6]; Preemergence, 500 g ai/ha) | Plant response rating (0 to 100), Morningglory ([9]; 62 g ai/ha) | Plant response rating (0 to 100), Morningglory ([9]; 125 g ai/ha) | Plant response rating, Morningglory ([9]; 250 g ai/ha) | Plant response rating (0 to 100), Crabgrass, Large ([11]; 31 g ai/ha) | Plant response rating (0 to 100), Crabgrass, Large ([11]; 62 g ai/ha) | Plant response rating (0 to 100), Blackgrass ([12]; 31 g ai/ha) | Plant response rating (0 to 100), Blackgrass ([12]; 62 g ai/ha) | Plant response rating (0 to 100), Blackgrass ([12]; 125 g ai/ha) | Plant response rating, Blackgrass ([12]; 250 g ai/ha)
5: Plant response rating (0 to 100), Crabgrass, Large ([11]; 125 g ai/ha) | Plant response rating, Crabgrass, Large ([11]; 250 g ai/ha)
40: Plant response rating (0 to 100 scale), Velvetleaf ([3]; Preemergence, 500 g ai/ha)
35: Plant response rating, Ragweed ([8]; 250 g ai/ha)
30: Velvetleaf plant response rating (0 = no effect, 100 = complete control) ([3]; Preemergence, 125 g ai/ha) | Plant response rating (0 to 100), Ragweed ([8]; 62 g ai/ha) | Plant response rating (0 to 100), Ragweed ([8]; 125 g ai/ha)
90: Plant response rating (0 to 100 scale), Velvetleaf ([3]; Postemergence, 125 g ai/ha) | Plant response rating (0 to 100 scale), Velvetleaf ([3]; Postemergence, 500 g ai/ha) | Plant response rating (0 to 100 scale), Pigweed ([7]; Postemergence, 500 g ai/ha) | Plant response rating (0 to 100 scale), Pigweed ([7]; Preemergence, 500 g ai/ha)
60: Pigweed plant response rating (0 = no effect, 100 = complete control) ([7]; Preemergence, 125 g ai/ha)
80: Plant response rating (0 to 100 scale), Pigweed ([7]; Postemergence, 125 g ai/ha) | Plant response rating, Velvetleaf ([10]; 250 g ai/ha)

— patent publication US10167262B2, “Herbicidal substituted 3-arylpyrazoles” (FMC CORPORATION, priority 2014, dated 2019)
